The values that follow come from patent publication US20240293323A1, “PHARMACEUTICAL COMPOSITIONS OF AN EPIDERMAL GROWTH FACTOR RECEPTOR INHIBITOR” (Blueprint Mdeicines Coroporation, priority 2021, published 2024).

This series in a line: Aqueous solubility. In kind it is physicochemical.

As for `CO[C@@H]1CCN(c2nccc(Nc3cc4c(C(C)C)ccc(N5C[C@H](CS(C)(=O)=O)[C@H]5C)c4cn3)n2)C[C@@H]1F` [Compound (I), N-(2-((3S,4R)-3-fluoro-4-methoxypiperidin-1-yl)pyrimidin-4-yl)-5-isopropyl-8-((2R,3S)-2-methyl-3-((methylsulfonyl)methyl)azetidin-1-yl)isoquinolin-3-amine], the aqueous solubility entry is given as “low aqueous solubility”.
